Results as given in paper PMC10941181 (2024).

Key:
[1] = system: R2-Pu24T (G4 DNA) (DNA, G4) AGCACTCTAGCTCTATGAGGGTGGTGAGGGTGGGGAAGG; test: 1H NMR imino shifts; conditions: K+, 10 mM potassium phosphate; pH 7.4, 298 K
[2] = system: Cy5-Pu24T G4 (DNA, G4) AGCACTCTAGCTCTATGAGGGTGGTGAGGGTGGGGAAGG; test: microscale thermophoresis; conditions: 100 mM KCl, 10 mM potassium phosphate; pH 7.4, 0.05% Tween 20; 20 nM labelled DNA; GL 0.6 nM to 2.5 μM

## Cc1cc(N2CCNCC2)nc(Nc2nc(C)c3ccc4c(c3n2)CCC4)n1
[1]
  binding: yes
[2]
  Kd: > 0.2 µM
